We go through six compounds from US5780675A, “Deoxygossylic compounds” (The University of New Mexico, priority 1995, dated 1998).

Series [1] deals with T1, human serum albumin (Homo sapiens, UniProt P02768). Nature of the series: Binding to human serum albumin, fluorescence quenching titration. As to conditions: 25° C., pH 7.4, read-out: Dissociation constant (Kd) for binding to human serum albumin. As to the method: Table I below lists the dissociation constants (Kds) for binding of compounds 1-6 to human serum albumin. The Kd for gossypol was determined by multiple methods as reported in FEBS Lett. 157:28-30, 1983. The Kds for compounds 2-6 were determined by fluorescence quenching titrations.
These experiments were carried out at 25° C. in 2 mL volumes of 0.2M potassium phosphate buffer (pH 7.4) containing 0.1M sodium chloride. Aliquots of a 1 mM stock solution of test compound in DMSO were added to a 10 μM solution of human serum albumin in the buffer. Fluorescence was measured with a Perkin Elmer model LS 50 luminescence spectrometer. The Kds were determined by plotting the reciprocal of free ligand concentration versus the reciprocal of fractional quenching. This plot provides -1/Kd as the x-intercept. Details of the calculations employed are set forth in J. Pharm. Sci. 77:237-240 (1988).

For series [2] the following is noted: previous or background findings; GIL compared with gossypol; cited from earlier work.
Another series concerns HT46c (HeLaT4+) cells. The series is described as follows: Cytotoxicity: changes in cell morphology or loss of monolayer adherence in HT46c cells. It is filed as cell-based. As to conditions: for toxicity (in words): 5.0 μM; for cytotoxicity (in words): HT46c cells, compared with BDGA and/or GIL where stated.
Series [3] deals with H9/HIV-IIIB strain of the HIV-1 virus. Nature of the series: Inhibition of HIV replication, focal immunoassay (foci reduction) in HT46c cells. It is filed as cell-based. As to conditions: for reduction in foci (in words): 5 μM, GIL and BDGA compared; for EC50: Human immunodeficiency virus 1, 72 h, 3 days at 37° C.; for EC50 / anti-HIV activity (in words): H9/HIV-IIIB in HT46c cells; for anti-HIV activity (in words): in vitro, compared with BDGA and/or GIL where stated. Here is the method: 1,1'-bisdeoxygossypol (BDG), 1,1'-bisdeoxygossylic acid (BDGA), 8-deoxyhemigossypol (DHG) and 8-deoxyhemigossylic acid (DHGA) were synthesized and tested for their ability to inhibit the replication of HIV in vitro. The EC50 for BDGA was <1 μM and its threshold cytotoxicity was approximately 20 μM. […] Like BDGA, the Ec50 for GIL was <1 μM. […] BDG, on the other hand, was ineffective at 1 μM and destroyed >80% of the cell monolayer at 5 μM.
The anti-HIV assay used was based on a published procedure (J. Virol. 62:3779-3788, 1988) using HT46c (HeLaT4+) cells as host cells for the H9/HIV-IIIB strain of the HIV-1 virus. The cells were seeded into 6-well plates, 5×10^4 cells/well, in RPMI 1640 with 10% FBS and allowed to attach overnight. After treatment of the wells with DEAE-dextran, stock virus was added at a concentration that produces 100-200 foci/well on day 3 in positive control wells. Test compounds were added, and plates incubated for 3 days at 37° C., 5% CO2. Monolayers were fixed with methanol and wells analyzed with a focal immunoassay (FIA). The primary reagent used in the FIA was a polyclonal antibody preparation of sera from AIDS patients. The secondary reagent was a goat anti-human IgG antibody tagged with horseradish peroxidase. The substrate was 3-amino-9-ethylcarbazole in sodium acetate buffer with hydrogen peroxide. Each compound was tested at concentrations of 0.01, 0.1, 1.0, 5.0 and 20 μM. GIL was tested as a standard for comparison.

The test system of a further series is HIV. As to conditions: previously found, in vitro, similar assays; cited from earlier work.
A short description of series [4]: Cytotoxicity: changes in cell morphology or loss of monolayer adherence in HT46c cells. It is filed as cell-based. As to conditions: human; for MCC at 72 h: HT46c cells, 3 days, lowest concentration with detectable morphology change or loss of monolayer adherence, read-out: threshold cytotoxicity.
In series [5] the target is T1, human serum albumin. As to conditions: gossypol, determined by multiple methods as reported in FEBS Lett. 157:28-30, 1983; read-out: Dissociation constant (Kd) for binding to human serum albumin; cited from earlier work.

Structures are written as SMILES. “Also recorded” adds a separate entry of the source. Read-outs that look alike come from different tables or passages of the source.

T1 sequence (P02768 25-609): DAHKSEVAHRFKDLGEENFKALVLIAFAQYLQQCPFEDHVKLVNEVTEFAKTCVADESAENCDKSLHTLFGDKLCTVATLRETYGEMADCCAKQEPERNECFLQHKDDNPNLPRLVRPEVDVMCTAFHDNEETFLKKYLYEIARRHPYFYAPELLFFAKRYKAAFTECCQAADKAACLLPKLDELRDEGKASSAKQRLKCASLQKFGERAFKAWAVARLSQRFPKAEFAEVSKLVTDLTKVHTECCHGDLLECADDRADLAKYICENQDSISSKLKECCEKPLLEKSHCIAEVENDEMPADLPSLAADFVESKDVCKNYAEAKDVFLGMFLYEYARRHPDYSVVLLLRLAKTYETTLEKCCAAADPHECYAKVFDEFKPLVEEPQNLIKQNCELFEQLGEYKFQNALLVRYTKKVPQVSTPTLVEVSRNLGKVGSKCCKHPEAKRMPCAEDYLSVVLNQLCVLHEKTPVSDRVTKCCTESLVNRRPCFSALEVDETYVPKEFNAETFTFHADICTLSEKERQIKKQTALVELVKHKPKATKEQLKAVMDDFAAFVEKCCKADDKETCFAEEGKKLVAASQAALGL

As a reminder, the Kd is the constant that tells how readily two partners part at equilibrium. In general, EC50 refers to the midpoint of the concentration-response curve. Higher therefore signals lower potency in that assay. Turning to `Cc1cc2c(C(C)C)c(O)c(O)c3c2c(c1-c1c(C)cc2c(C(C)C)c(O)c(O)c4c2c1OC4=N)OC3=N` [GIL, reference compound], the Kd on human serum albumin [1] was 3000 nM. Besides, the “cytotoxicity (in words), previous findings” value in series [2] is “less cytotoxic than gossypol”. In the series with HT46c (HeLaT4+) cells, the “toxicity (in words)” value was “No toxicity was noted”. In addition, in series [3], the “reduction in foci (in words)” value is recorded as “same reduction in foci” and the EC50 is < 1000 nM. Besides, in the series on HIV, the “anti-HIV activity relative to gossypol (in words)” value is given as “more active; also recorded: more effective than gossypol”.

On to `Cc1cc2c(C(C)C)c(O)c(O)c(C(=O)O)c2cc1-c1cc2c(C(=O)O)c(O)c(O)c(C(C)C)c2cc1C` [BDGA, 6,6',7,7'-Tetrahydroxy-3,3'-dimethyl-5,5'-bis(1-methylethyl) [2,2'-binaphthalene]-8,8'-dicarboxylic Acid], for which, on human serum albumin [1], the dissociation constant Kd worked out at 1500 nM. Further, the MCC at 72 h in series [4] was ~20 µM. The “toxicity (in words)” value with HT46c (HeLaT4+) cells was “No toxicity was noted”. The “monolayer destruction (in words)” value in the series on HT46c (HeLaT4+) cells (20 μM) is “Some signs of monolayer destruction”. In series [3], the “reduction in foci (in words)” value was “same reduction in foci”, the EC50 was < 1000 nM and the “anti-HIV activity (in words)” value is given as “approximately as effective as GIL”.

In the case of `Cc1ccc2c(C(=O)O)c(O)c(O)c(C(C)C)c2c1` [DHGA, 2,3-dihydroxy-6-methyl-4-(1-methylethyl)-1-naphthoic Acid], the Kd on human serum albumin [1] was found to be 5280 nM. Also, the “cytotoxicity (in words)” value with HT46c (HeLaT4+) cells is given as “very low cytotoxicity”. Also, in the series with HT46c (HeLaT4+) cells (even at 20 μM), the “effect on cell morphology (in words)” value is reported as “no observable effect on viral replication or cell morphology”. For the same compound, the “effect on viral replication (in words)” value in series [3] (even at 20 μM) is “no observable effect on viral replication”. Besides, in series [3], the “anti-HIV activity (in words)” value was “ineffective against HIV”.

On to `Cc1cc2c(C(C)C)c(O)c(O)c(C=O)c2cc1-c1cc2c(C=O)c(O)c(O)c(C(C)C)c2cc1C` [BDG, 6,6',7,7'-Tetrahydroxy-3,3'-dimethyl-5,5'-bis(1-methylethyl) [2,2'-binaphthalene]-8,8'-dicarboxaldehyde], for which, at human serum albumin [1], the Kd turned out to be 1200 nM. The cytotoxicity at 5 µM in series [4] (ht46c cells, 5 μM, read-out: cell monolayer destroyed) is > 80%. Moreover, the “cytotoxicity (in words)” value in the series on HT46c (HeLaT4+) cells is “much more cytotoxic than BDGA”. In addition, the “anti-HIV effect (in words)” value in series [3] (1 μM) is “ineffective”. Besides, the “anti-HIV activity (in words)” value in series [3] is reported as “less effective against HIV”.

Turning to `Cc1ccc2c(C=O)c(O)c(O)c(C(C)C)c2c1` [DHG, 2,3-dihydroxy-6-methyl-4-(1-methylethyl)-1-naphthaldehyde], at human serum albumin [1], the dissociation constant (Kd) is 660 nM. In series [4], the MCC at 72 h is 5 µM. Besides, the “cytotoxicity (in words)” value with HT46c (HeLaT4+) cells is “more cytotoxic”. Further, the “anti-HIV activity (in words)” value in series [3] is reported as “some anti-HIV activity; also recorded: less active”.

Turning to `Cc1cc2c(C(C)C)c(O)c(O)c(C=O)c2c(O)c1-c1c(C)cc2c(C(C)C)c(O)c(O)c(C=O)c2c1O` [gossypol], the “cytotoxicity (in words), previous findings” value in series [2] is “significantly cytotoxic at effective dosage levels”. Further, on human serum albumin [5], the Kd was 90 nM.
